For 20 compounds, IC50 and Emax results are on record in patent publication US12410179B2, “Modulators of TNF alpha activity and uses thereof” (RayThera, Inc., priority 2023, dated 2025).

This test concerns the target TNFα (Homo sapiens, UniProt P01375). The experiment in a line: HEK-Blue hTNFα reporter assay. Type of test: cell-based. Also noted: purchased R&D biosystem (R&D Systems) 210-TA-020/CF. The settings on record: HEK-Blue hTNFα reporter cells; for Emax: read-out: TNFα reporter, Emax. The text has this: Stimulation of HEK293 cells by TNFα leads to activation of the NF-κB pathway. The potency of compounds was examined in HEK-Blue™ hTNFα reporter cells (Invivogen, Cat #hkb-tnfdmyd). HEK-Blue™ TNFα cells were generated by stable transfection of HEK293 cell line with a SEAP reporter gene under the control of the […] minimal promoter fused to NF-κB binding sites. Stimulation of HEK-Blue™ TNFα cells with TNFα triggers the activation of the NF-κB-inducible promoter and the production of SEAP. Levels of SEAP in the supernatant can be easily determined using QUANTI-Blue™ Solution (Invivogen, cat #rep-qbs) by reading the OD at 620-655 nm.
HEK-Blue™ TNFα cells were cultured in DMEM supplemented with 10% FBS, 100p/mL penicillin, 100 μg/mL streptomycin, 100 μg/mL normocin, 1 μg/mL puromycin, and 100 μg/mL zeocin. The culture was maintained in culture incubator with 5% CO2 at 37° C. When used for assay, the cells were gently rinsed twice with pre-warmed phosphate buffered saline (PBS) and detached in presence of PBS by tapping the flask or by using a cell scraper. The cells were spun to remove PBS and resuspended in fresh, pre-warmed test medium (DMEM supplemented with 10% FBS, 100p/mL penicillin, and 100 μg/mL streptomycin). A serial dilution of work solution of tested compound was made in DMSO with 1000× of final concentration, and 40 nL of compound DMSO solution was transferred into 384-well plates (Corning 3764) by Echo, and incubated with 10 μL of recombinant hTNFα (R&D biosystem, Cat #210-TA-020/CF) for 1 h at 37° C. The compound/hTNFα mixture well received 30 μL HEK-Blue™ TNFα cell suspension at 10000 cells/well, and then incubated at 37° C. with 5% CO2 for 24 h. The final concentration of hTNFα is […]. After incubation, 5 μL of induced cell supernatant was transferred to a new 384-well plate well (Coring 3764) to mix with 45 μL of QUANTI-Blue Solution. After 1 h incubation at 37° C., the plate was read using a spectrophotometer at 620 nm.
The percentage of inhibition was calculated by the following formula: % inhibition=(positive control−Sample)/(positive control−negative control)*100 • Positive control: OD620 reading of cells with hTNFα stimulation. • Negative control: OD620 reading of cells without hTNFα stimulation. • Sample: OD620 reading of cells with compound at specific concentration and hTNFα stimulation
The % inhibition was plotted against compound concentration in logarithmic scale and the IC50 was rendered using 4-parameter nonlinear regression (GraphPad Prism).
A general note: In a reporter assay the amount or activity of a reporter protein is the signal.

Setting [1] is: SEAP readout, read-out: IC50 Range.

Where two headings read alike, the source gives them in different places.

For orientation: IC50 means the midpoint of a concentration-inhibition curve. As usually defined, the Emax is the maximal effect, on the per cent scale that the assay sets.

Chain of TNFα (P01375 77-233 limits assumed): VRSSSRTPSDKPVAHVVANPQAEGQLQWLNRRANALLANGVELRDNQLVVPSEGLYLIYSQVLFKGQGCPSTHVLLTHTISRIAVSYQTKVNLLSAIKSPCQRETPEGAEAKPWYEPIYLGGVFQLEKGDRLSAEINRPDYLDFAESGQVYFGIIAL

`CN1C(=O)c2cccc(OC(F)F)c2[C@H]2C[C@@H]1c1nn3ccc(C4=CCC(C(C)(C)O)OC4)cc3c12` (stereo in doubt) [Example 318, (7R,14S)-1-(difluoromethoxy)-12-((R)-6-(2-hydroxypropan-2-yl)-5,6-dihydro-2H-pyran-3-yl)-6-methyl-6,7-dihydro-7,14-methanobenzo[c]pyrido[1′,2′:1,5]pyrazolo[4,3-f]azocin-5 (14H)-one]: under setting [1], the half-maximal inhibitory concentration (IC50) is below 25 nM. As for `CN1C(=O)c2cccc(OC(F)F)c2[C@H]2C[C@@H]1c1nn3ccc(C4=CCC(C(C)(C)O)OC4)cc3c12` (stereo in doubt) [Example 319, (7R,14S)-1-(difluoromethoxy)-12-((S)-6-(2-hydroxypropan-2-yl)-5,6-dihydro-2H-pyran-3-yl)-6-methyl-6,7-dihydro-7,14-methanobenzo[c]pyrido[1′,2′:1,5]pyrazolo[4,3-f]azocin-5 (14H)-one], under setting [1], the concentration for half-maximal inhibition (IC50) was below 25 nM. For the compound `CN1C(=O)c2cccc(OC(F)F)c2[C@H]2C[C@@H]1c1nc3ccc(-c4cnc([C@]5(N)C[C@@](C)(O)C5)c(F)c4)cc3n12` [Comp. Ex #2, reference compound], the Emax came to 85%. For the same compound, the IC50 (read-out: TNFα reporter, IC50) was 4.7 nM. In the same order, the values of `CN1C(=O)c2cccc(OC(F)F)c2[C@H]2C[C@@H]1c1nc3ccc(-c4cnc(C5(O)CCOCC5)nc4)cc3n12` [Comp. Ex #3, reference compound] are 70% and 8.2 nM. Turning to `CN1C(=O)c2cccc(OC(F)F)c2[C@H]2C[C@@H]1c1nc3ccc(-c4cnc([C@]5(N)C[C@@](C)(C#N)C5)nc4)cc3n12` [Comp. Ex #5, reference compound], the Emax turned out to be 83%. Besides, the half-maximal inhibitory concentration (IC50) (read-out: TNFα reporter, IC50) was 16.1 nM. In the same order, the values of `CN1C(=O)c2cccc(OC(F)F)c2[C@H]2C[C@@H]1c1nc3ccc(-c4cnc([C@]5(O)C[C@@](C)(O)C5)nc4)cc3n12` [Comp. Ex #6, reference compound] are 82% and 5.2 nM.

Consider `CN1C(=O)c2cccc(OC(F)F)c2[C@H]2C[C@@H]1c1nc3ccc(-c4cnc([C@]5(N)C[C@@](C)(CO)C5)nc4)cc3n12` [Comp. Ex #7, reference compound], for which the Emax stood at 92%. Besides, where the note is “read-out: TNFα reporter, IC50”, the IC50 came to 4.2 nM. Regarding `CN1C(=O)c2cccc(OC(F)F)c2[C@H]2C[C@@H]1c1nc3ccc(-c4cnc([C@]5(N)C[C@@](C)(C#N)C5)c(F)c4)cc3n12` [Comp. Ex #8, reference compound], the Emax amounted to 80%. For the same compound, the IC50 (read-out: TNFα reporter, IC50) was 5.3 nM. As for `CN1C(=O)c2cccc(OC(F)F)c2C2CC1c1nn3ccc(-c4cnc(C5(N)CCC5)nc4)nc3c12` (stereo not shown) [Example 1, 12-(2-(1-aminocyclobutyl)pyrimidin-5-yl)-1-(difluoromethoxy)-6-methyl-6,7-dihydro-7,14-methanobenzo[c]pyrimido[1′,2′:1,5]pyrazolo[4,3-f]azocin-5 (14H)-one], the concentration for half-maximal inhibition (IC50) under setting [1] lay within 25 to 100 nM. Consider `CN1C(=O)c2cccc(OC(F)F)c2[C@@H]2C[C@H]1c1nn3ccc(-c4cnc(C5(N)CCC5)nc4)nc3c12` [Example 2, (7S,14R)-12-(2-(1-aminocyclobutyl)pyrimidin-5-yl)-1-(difluoromethoxy)-6-methyl-6,7-dihydro-7,14-methanobenzo[c]pyrimido[1′,2′:1,5]pyrazolo[4,3-f]azocin-5 (14H)-one], for which, under setting [1], the IC50 was 100 to 1000 nM.

Take `CN1C(=O)c2cccc(OC(F)F)c2[C@H]2C[C@@H]1c1nn3ccc(-c4cnc(C5(N)CCC5)nc4)nc3c12` [Example 3, (7R,14S)-12-(2-(1-aminocyclobutyl)pyrimidin-5-yl)-1-(difluoromethoxy)-6-methyl-6,7-dihydro-7,14-methanobenzo[c]pyrimido[1′,2′:1,5]pyrazolo[4,3-f]azocin-5 (14H)-one]: under setting [1], the concentration for half-maximal inhibition (IC50) was below 25 nM.

As for `CN1C(=O)c2cccc(OC(F)F)c2[C@H]2C[C@@H]1c1nn3ccc(-c4cnc(C5(O)CC(C)(C#N)C5)nc4)nc3c12` (stereo partly drawn) [Example 4, (1R,3s)-3-(5-((7R,14S)-1-(difluoromethoxy)-6-methyl-5-oxo-5,6,7,14-tetrahydro-7,14-methanobenzo[c]pyrimido[1′,2′:1,5]pyrazolo[4,3-f]azocin-12-yl)pyrimidin-2-yl)-3-hydroxy-1-methylcyclobutane-1-carbonitrile], the IC50 under setting [1] is below 25 nM. Still for that read-out and setting: the figure for `CN1C(=O)c2cccc(OC(F)F)c2[C@H]2C[C@@H]1c1nn3ccc(-c4cnc([C@]5(C#N)C[C@@](C)(O)C5)nc4)nc3c12` [Example 5, (1r,3S)-1-(5-((7R,14S)-1-(difluoromethoxy)-6-methyl-5-oxo-5,6,7,14-tetrahydro-7,14-methanobenzo[c]pyrimido[1′,2′:1,5]pyrazolo[4,3-f]azocin-12-yl)pyrimidin-2-yl)-3-hydroxy-3-methylcyclobutane-1-carbonitrile] is below 25 nM; for `CN1C(=O)c2cccc(OC(F)F)c2[C@H]2C[C@@H]1c1nn3ccc(-c4cnc(C5(N)CC5)nc4)nc3c12` [Example 6, (7R,14S)-12-(2-(1-aminocyclopropyl)pyrimidin-5-yl)-1-(difluoromethoxy)-6-methyl-6,7-dihydro-7,14-methanobenzo[c]pyrimido[1′,2′:1,5]pyrazolo[4,3-f]azocin-5 (14H)-one] it is below 25 nM.

As to `CN1C(=O)c2cccc(OC(F)F)c2[C@H]2C[C@@H]1c1nn3ccc(-c4cnc([C@]5(N)C[C@@](C)(C#N)C5)nc4)nc3c12` [Example 7, (1R,3s)-3-amino-3-(5-((7R,14S)-1-(difluoromethoxy)-6-methyl-5-oxo-5,6,7,14-tetrahydro-7,14-methanobenzo[c]pyrimido[1′,2′:1,5]pyrazolo[4,3-f]azocin-12-yl)pyrimidin-2-yl)-1-methylcyclobutane-1-carbonitrile], the IC50 under setting [1] is below 25 nM. With `CN1C(=O)c2cccc(OC(F)F)c2[C@H]2C[C@@H]1c1nn3ccc(C4=CCC(C(C)(C)O)CC4)nc3c12` (stereo partly drawn) [Example 8, (7R,14S)-1-(difluoromethoxy)-12-(4-(2-hydroxypropan-2-yl)cyclohex-1-en-1-yl)-6-methyl-6,7-dihydro-7,14-methanobenzo[c]pyrimido[1′,2′:1,5]pyrazolo[4,3-f]azocin-5 (14H)-one], the half-maximal inhibitory concentration (IC50) under setting [1] was in the range of 25 to 100 nM. Still for that read-out and setting: the figure for `CN1C(=O)c2cccc(OC(F)F)c2[C@H]2C[C@@H]1c1nn3ccc(-c4cnc([C@]5(N)C[C@@](C)(O)C5)nc4)nc3c12` [Example 9, (7R,14S)-12-(2-((1s,3R)-1-amino-3-hydroxy-3-methylcyclobutyl)pyrimidin-5-yl)-1-(difluoromethoxy)-6-methyl-6,7-dihydro-7,14-methanobenzo[c]pyrimido[1′,2′:1,5]pyrazolo[4,3-f]azocin-5 (14H)-one] is below 25 nM. With `CN1C(=O)c2cccc(OC(F)F)c2[C@H]2C[C@@H]1c1nn3ccc(-c4cnc([C@]5(N)C[C@@](C)(CO)C5)nc4)nc3c12` [Example 10, (7R,14S)-12-(2-((1s,3R)-1-amino-3-(hydroxymethyl)-3-methylcyclobutyl)pyrimidin-5-yl)-1-(difluoromethoxy)-6-methyl-6,7-dihydro-7,14-methanobenzo[c]pyrimido[1′,2′:1,5]pyrazolo[4,3-f]azocin-5 (14H)-one], the Emax worked out at 93%. Further, the IC50 under setting [1] was below 25 nM. The IC50 (read-out: TNFα reporter, IC50) came to 12.7 nM.

As for `CN1C(=O)c2cccc(OC(F)F)c2[C@H]2C[C@@H]1c1nn3ccc(-c4cnc(C(C)(C)O)nc4)nc3c12` [Example 11, (7R,14S)-1-(difluoromethoxy)-12-(2-(2-hydroxypropan-2-yl)pyrimidin-5-yl)-6-methyl-6,7-dihydro-7,14-methanobenzo[c]pyrimido[1′,2′:1,5]pyrazolo[4,3-f]azocin-5 (14H)-one], under setting [1], the half-maximal inhibitory concentration (IC50) is 25 to 100 nM. As for `CN1C(=O)c2cccc(OC(F)F)c2[C@H]2C[C@@H]1c1nn3ccc(-c4cnc(C5(O)CCOC5)nc4)nc3c12` (stereo partly drawn) [Example 12, (7R,14S)-1-(difluoromethoxy)-12-(2-(3-hydroxytetrahydrofuran-3-yl)pyrimidin-5-yl)-6-methyl-6,7-dihydro-7,14-methanobenzo[c]pyrimido[1′,2′:1,5]pyrazolo[4,3-f]azocin-5 (14H)-one], the 50% inhibitory concentration (IC50) under setting [1] fell in the range of 25 to 100 nM.
